Reference: ChEMBL document CHEMBL2034870, “Activity landscape modeling of PPAR ligands with dual-activity difference maps” (Bioorg Med Chem, 2012)
pIC50: −log10 of the molar value.

Columns and labels:
[1] = biological target: T1, Peroxisome proliferator-activated receptor delta (Homo sapiens, UniProt Q03181); type: functional; details: for IC50: read-out: pIC50 (converted); for pIC50: read-out: IC50
T1 sequence (Q03181 whole entry): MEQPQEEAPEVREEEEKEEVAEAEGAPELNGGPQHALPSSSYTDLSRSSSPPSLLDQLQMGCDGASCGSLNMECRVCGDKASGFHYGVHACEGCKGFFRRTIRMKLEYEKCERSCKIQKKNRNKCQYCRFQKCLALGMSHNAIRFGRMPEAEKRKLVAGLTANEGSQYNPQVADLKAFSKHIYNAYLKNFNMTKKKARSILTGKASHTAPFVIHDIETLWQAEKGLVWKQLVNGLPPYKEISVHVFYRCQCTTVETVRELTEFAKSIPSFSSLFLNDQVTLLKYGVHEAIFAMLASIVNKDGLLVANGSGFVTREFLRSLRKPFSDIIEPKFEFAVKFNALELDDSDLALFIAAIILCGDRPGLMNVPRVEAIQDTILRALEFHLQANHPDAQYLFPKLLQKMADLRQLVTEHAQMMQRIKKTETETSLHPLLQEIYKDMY

[2] = biological target: T2, Peroxisome proliferator-activated receptor alpha (Homo sapiens, UniProt Q07869); type: functional; details: for IC50: read-out: pIC50 (converted); for pIC50: read-out: IC50
T2 sequence (Q07869 whole entry): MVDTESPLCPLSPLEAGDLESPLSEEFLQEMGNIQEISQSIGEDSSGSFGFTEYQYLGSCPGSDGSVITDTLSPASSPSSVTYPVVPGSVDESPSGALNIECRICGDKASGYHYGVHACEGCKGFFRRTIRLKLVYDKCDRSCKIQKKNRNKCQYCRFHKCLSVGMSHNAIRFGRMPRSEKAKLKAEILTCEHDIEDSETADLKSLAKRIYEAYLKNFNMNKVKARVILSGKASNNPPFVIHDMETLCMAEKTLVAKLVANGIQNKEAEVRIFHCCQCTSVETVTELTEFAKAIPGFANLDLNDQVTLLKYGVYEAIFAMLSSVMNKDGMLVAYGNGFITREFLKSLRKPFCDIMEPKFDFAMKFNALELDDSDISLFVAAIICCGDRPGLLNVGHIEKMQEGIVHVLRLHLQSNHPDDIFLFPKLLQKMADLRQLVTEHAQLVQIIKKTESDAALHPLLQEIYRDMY

IC50 [1]	IC50 [2]	pIC50 [2]	pIC50 [1]	SMILES
3850 nM	–	–	–	CCCc1cc(C2CCCC2)ccc1OCCCOc1cccc([C@H]2OC(=O)NC2=O)c1
372 nM	352 nM	–	–	CCO[C@H](Cc1ccc2c(c1)cc(C)n2Cc1nc(-c2ccc(C(F)(F)F)cc2)oc1C)C(=O)O
891 nM	61 nM	–	–	Cc1oc(-c2ccc(C(F)(F)F)cc2)nc1Cn1ccc2cc(C[C@@H](OC(C)C)C(=O)O)ccc21
–	–	6.47	6.80	CC(C)Cc1cc(Oc2ccccc2)ccc1OCCCOc1ccc([C@@H]2SC(=O)NC2=O)cc1
1510 nM	–	–	–	CCCc1cc(-c2ccccc2)ccc1OCCCOc1cccc([C@@H]2OC(=O)NC2=O)c1
10 nM	100 nM	–	–	CCCc1c(OCCCSc2ccc(CC(=O)O)cc2Cl)ccc(/C(CC)=N\O)c1O
170 nM	–	–	–	CCCc1cc(C(=O)c2ccccc2)ccc1OCCCOc1cccc([C@@H]2SC(=O)NC2=O)c1
–	–	6.09	5.16	O=C(O)[C@@H]1CCc2ccc(OCCCOc3ccc(OCC(F)(F)F)cc3Cl)cc2O1
–	–	–	5.42	CCCc1cc(Oc2ccc(O)cc2)ccc1OCCCOc1cccc([C@@H]2SC(=O)NC2=O)c1

Further lines, the compound ahead of its results:

SMILES	IC50 [1]	IC50 [2]	pIC50 [2]	pIC50 [1]
CCO[C@@H](Cc1cccc2c1ccn2Cc1nc(-c2ccccc2)oc1C)C(=O)O	3500 nM	125 nM	–	–
CCCc1cc(OC2CCCC2)ccc1OCCCOc1cccc([C@@H]2SC(=O)NC2=O)c1	920 nM	–	–	–
CC[C@@](Cc1ccc(OCCc2nc(-c3ccccc3)oc2C)cc1)(Oc1ccccc1)C(=O)O	5070 nM	473 nM	–	–
O=C1NC(=O)[C@H](c2cccc(OCCCOc3ccc(Oc4ccccc4)cc3)c2)S1	190 nM	–	–	–
CCCO[C@H](Cc1ccc2c(ccn2Cc2nc(-c3ccc(C(F)(F)F)cc3)oc2C)c1)C(=O)O	–	40 nM	–	–
CCCc1cc(-c2noc3ccccc23)ccc1OCCCOc1cccc([C@@H]2SC(=O)NC2=O)c1	140 nM	–	–	–
CCCn1c(CCCc2ccc(OC(C)(C)C(=O)O)cc2)nn([C@H](C)c2ccccc2)c1=O	1500 nM	220 nM	–	–
CCCC[C@@](Cc1ccc(OCCc2nc(-c3ccccc3)oc2C)cc1)(Oc1ccccc1)C(=O)O	–	–	5.73	5.14
Cc1oc(-c2ccccc2)nc1CCOc1ccc(C[C@H](Oc2ccccc2)C(=O)O)cc1	–	–	5.96	5.15
